The test system of one series is rat hearing. The experiment in a line: Auditory brainstem responses after transtympanic injection in rat. It counts as in vivo, Sprague-Dawley rats. Conditions: rat ears pretreated with transtympanic compound (2 mM), then cisplatin.
Series [1] relates to HEI-OC1. In words: MTT assay in auditory cells HEI-OC1. In kind it is cell-based. The method, then:
(§1) HEI-OC1 and UB-OC1 as auditory cells were subjected to MTT assay. Auditory cell lines were seeded on a 96-well plate in the ratio of 2×10^3 cells/well, and then cultured in an incubator under the condition of 37° C., 5% CO2 for 2 days. The compounds of Examples 1 and 2 were used at various concentrations with operating 5 runs for each sample, and then cultured in the incubator for 16 hours. The plate was treated with 1 mg/ml MTT solution per well, and then cultured in the incubator for 4 hours. Then, 100 μl DMSO per well was used to dissolve formazan, and the optical density of formazan as dissolved was measured at 540 nm.
For orientation: Tetrazolium dyes change colour on reduction, which living cells bring about.

For series [2], the system named is HEI-OC1. The experiment in a line: TUNEL assay. In kind it is cell-based. Particulars: compound alone. As to the method: 3×10^5 cells were seeded on the 6-well, incubated, then starved for 24 hours, and treated with the drug of the present invention by conditions, and then incubated for 24 hours. The cells were fixed with addition of 4% paraformaldehyde at normal temperature for 30 minutes, then washed two times with PBS, and treated with the permeablilization solution comprising 0.1% Triton X-100 at normal temperature for 10 minutes. The cells were washed again two times with PBS, and after adding terminal deoxynucleotidyl transferase (TDT) and nucleotide mixture, incubated for one hour with blocking out the light at 37° C. After washing two times with PBS, the apoptosis of cells was examined under fluorescence microscope. For control staining of cells without apoptosis, 4,6-diamino-2-phenylindole (DAPI, Sigma) solution was used. The stained cells were analyzed using a fluorescence microscope (Carl Zeiss, Oberkochen, Germany). TUNEL-positive cells were manually counted under a 200× magnification field in triplicate.

A further series deals with rat cochlea. The experiment in a line: Tissue TUNEL assay of rat cochlea. In kind it is in vivo. Particulars: cisplatin only. The method, then:
Animals were sedated using an intraperitoneal (IP) injection of 3.125 mg/kg xylazine, 3.125 mg/kg zolazepam and […]. The rats were divided into two groups after baseline auditory brainstem response (ABR) testing was performed. […] The control group (four rats, eight ears) received transtympanic saline in both ears followed by IP saline (16 mL/kg by IP infusion). The compound of Example 2 only group (four rats, eight ears) received transtympanic the compound of Example 2 in both ears followed by IP saline (16 mL/kg by IP infusion). On days 2 to 5, daily transtympanic injections of either 2 mM the compound of Example 2 or saline were continued. Posttreatment ABR was obtained on day 14.
After fixation by intralabyrinthine perfusion of 4% paraformaldehyde (pH 7.4), the cochleae were removed and then were incubated in the same fixative overnight. Decalcification was performed in ethylenediamine tetraacetic acid solution (EDTA) (10% in PBS) for 3-4 weeks. Subsequently, the tissues were embedded in paraffin.
Organ of Corti explants were each fixed for 15 min in 3.7% (v/v) formaldehyde in PBS at room temperature. Each explant was rinsed with PBS and incubated in proteinase K diluted from the TUNEL kit for 15 min at room temperature. […] Each explant was washed twice with PBS and examined using a fluorescence microscope.

Series [3] relates to JNK, p38, cleaved caspase 3, PARP in HEI-OC1. The experiment in a line: Western blotting of apoptosis-related proteins. In kind it is cell-based. Conditions: cisplatin alone. For orientation: Immunoblotting shows a protein as a band on a membrane.
Series [4] relates to zebrafish neuromast. In words: Scanning and transmission electron microscopy of zebrafish neuromast. It counts as in vivo, Danio rerio. Particulars: 50 μM cisplatin. An excerpt:
They were dried with a drier, treated with an evaporator (MED010; Baltec, Hudson, N.H.), and then observed using a scanning microscope (JSM-6700F JEOL, Tokyo, Japan).
Larvae were cut in the direction from head to tail, sliced to a thickness of […], and then stained with 1% toluidine blue. They were divided into ultrathin sections (90 nm) using Ultracut S microtome (Leica, Wetzlar, Germany), mounted on 200-mesh Athene thin bar-grids, treated with uranyl acetate and lead citrate, and then observed using s transmission electron microscope (EM 902A Carl Zeiss).

For a further series, the system named is auditory cells. In words: FACScan with Annexin-V and PI double staining. It counts as cell-based. Conditions: 50 μM of cisplatin. As to the method: The degree of apoptosis was analyzed with Annexin V-FITC Apoptosis Detection kit I (BD Biosciences, San Diego, Calif.). 3×10^5 cells were seeded on 60 mm dish, incubated, then starved for 24 hours, and treated with the compounds of Examples 1 and 2 by conditions and incubated for 24 hours. After removing the culture solution, the cells were washed two times with PBS, and suspended in the binding buffer in the ratio of 1×10^6 cells/ml. 100 μl of this solution was transferred to 5 ml tube, and after addition of 5 μl of Annexin V-FITC to the tube, well mixed together, and then reacted for about 15 minutes in the dark place. Then, 400 μl of the binding buffer was added, and the cells were counted until 10,000 cells were on Becton Dicki nson FACSscan (Lysis II Ver. 1.0). The degree of apoptosis was measured depending on the expression of Annexin V-FITC from the result of FACScan flowcytometry. In addition, the degree of apoptosis was also measured under fluorescence microscope.

Series [5] concerns HEI-OC1. In words: Measurement of mitochondrial membrane potential (MMP), JC-1. In kind it is cell-based. Conditions: cisplatin alone. The method, then:
The mitochondrial membrane potential (MMP) was measured using 5,5V,6,6V-tetrachloro-1,1V,3,3V-tetraethylbenzimidazolcarbocyanine iodide (JC-1; Molecular Probes) as a lipophilic cationic probe.
JC-1 is a fluorescent dye which is accumulated by mitochondria in its inside. If the function of mitochondria is normal, MMP is high and mitochondria are predominantly red. Then, if mitochondria are damaged, MMP is reduced and mitochondria are changed into green.

Series [6] concerns HEI-OC1 cells. The experiment in a line: Measurement of intracellular ROS generation (DCFDA). Conditions: cisplatin, time-dependent. In kind it is cell-based. As to the method:
Intracellular generation of ROS was quantified using 5-(and 6)-carboxyl-20,70-dichlorodihydro fluorescein diacetate (DCFDA; Molecular Probes, Eugene, Oreg., USA). […] ROS generation at various time points was checked and the amount of ROS generation was the highest at 16 h. Therefore, 16 h as the time point for ROS detection was chosen for subsequent experiments. Cells were incubated in the dark with 10 μM DCFDA in serum-free medium for 10 min at 33° C. The oxidative burst (hydrogen peroxide, H2O2) was detected using a FACScan flow cytometer (Becton Dickinson, Franklin Lakes, N.J., USA) with excitation and emission settings at 488 and 530 nm, respectively.

The test system of series [7] is zebrafish neuromast. The experiment in a line: Observation of zebrafish neuromast using fluorescent microscope (Yo-Pro-1). It counts as in vivo, Danio rerio. Particulars: zebrafish 4th day. As to the method: When embryo of zebrafish (Danio rerio) wild type is on the 4th day, the drugs (compounds of Examples 1 and 2) were added to 2 ml of embryo media in 6 well, and then 5 embryos were added to each group and reacted with the drug in the incubator maintained at 28.5° C. for one hour. After reaction, embryos were washed three times with embryo media, and then placed in clean embryo media for 3 hours. After 3 hours, […] of Yo-Pro-1 (molecular probes, Oregon U.S.A) was added to embryo media, and then reacted for one hour in the place with blocking the light. After reaction, embryos were washed again three times with clean embryo media, and anesthetized with 8 μg/ml of MS222 (3-aminobenzoic aid ethyl ester, methanesulfonate salt, Sigma Chemical CO, St Louis, U.S.A) anesthetic.

The subject of the next series is UB-OC1. The experiment in a line: MTT assay in auditory cells UB-OC1. In kind it is cell-based. Conditions: UB-OC1, 50 of cisplatin. As to the method: as §1
The subject of series [8] is HEI-OC1 cells. The experiment in a line: Cell cycle analysis using FACScan. It counts as cell-based. Particulars: cisplatin alone. As to the method: The cells were treated with trypsin, washed with PBS, and then stained with a dye (5 mg/ml propidium iodide, 20 mg/ml RNase A) in a dark room at normal temperature for 15 minutes. The stained cells were analyzed with a flow cytometry cell sorter (Becton Dickinson).

Structures are written as SMILES.

Description for rat hearing: Sixteen female Sprague-Dawley rats (Samtaco, Osan, Korea) weighing between 180 and 220 g were used. After transportation, the animals were maintained in the central animal laboratory for at least 1 week. The animals were housed in independently ventilated cages and were allowed free access to water and food. The temperature was maintained at 21±1° C., and the lights were turned on from 8:00 AM to 8:00 PM. Rats with an inner ear infection were not used. This study was approved by the Committee for Ethics in Animal Experiments of the Ajou University School of Medicine.
Animals were sedated using an intraperitoneal (IP) injection of 3.125 mg/kg xylazine, 3.125 mg/kg zolazepam and 11.5 mg/kg xylazine. The rats were divided into two groups after baseline auditory brainstem response (ABR) testing was performed. […] The control group (four rats, eight ears) received transtympanic saline in both ears followed by IP saline (16 mL/kg by IP infusion). […] Posttreatment ABR was obtained on day 14.
Preyer's reflex and otoscopy were used to confirm that the middle ears were normal. The rats were anaesthetized using an IP injection of 3.125 mg/kg zolazepam and 11.5 mg/kg xylazine. Subdermal sterile stainless steel electrode needles were attached, with the active lead at the vertex that referred to a second electrode located at the tip of the nose. The grounding electrode was placed on the front paw muscles. […]

In the case of `NC1(c2ccc(F)cc2)C(=O)Nc2cccc(F)c2C1=O` (stereo not drawn) [Example 2, 3-amino-5-fluoro-3-(4-fluorophenyl)quinolin-2,4(1H,3H)-dione], in the series with rat hearing, the “average click-evoked ABR threshold shift” value is on record as 38.5±11.3 dB and the “click-evoked ABR threshold shift, range” value is listed as 27-49 dB. Further, the “cytotoxicity in auditory hair cells (MTT)” value in the series on HEI-OC1 [1] (HEI-OC1, compound alone, up to elevated dose of 200) is reported as “substantially same result”. The “apoptosis (TUNEL positive cells) on administration of compound alone” value with HEI-OC1 [2] was “did not cause apoptosis”.
As for `N.N.[Cl][Pt][Cl]` [cisplatin, reference compound], in the series with rat cochlea, the “TUNEL positive cells in cochlea versus control group” value was “more numerous”. The “auditory hair cells killed by cisplatin (MTT)” value was “about 50%” in the series with HEI-OC1 [1] (HEI-OC1, 50 of cisplatin) and “about 50%” in the series on UB-OC1. Further, the “JNK, p38, cleaved caspase 3, PARP” value in [3] was “increased”. The “kinocilium of auditory cells of neuromast (SEM, TEM)” value in the series on zebrafish neuromast [4] is “markedly damaged or mostly disappeared or fused”. Besides, the “apoptosis (annexin/PI FACS)” value with auditory cells is “increased”. In addition, the “mitochondrial membrane potential (JC-1 fluorescence)” value with HEI-OC1 [5] is “changed into green fluorescence”. For the same molecule, the “generation of intracellular ROS” value in the series with HEI-OC1 cells [6] is listed as “significantly increased”. This molecule showed a reduction of neuromast with zebrafish neuromast [7] (50 μM cisplatin) of at least 70%. The neuromast entry with zebrafish neuromast [7] (100 μM cisplatin) is on record as “substantially all of neuromast was disappeared”. Also, the “sub G1 related to apoptosis” value in the series with HEI-OC1 cells [8] is “increase”.

These data come from US8772493B2, “Compounds having auditory protective effect” (Ajou University Industry-Academic Cooperation Foundation, priority 2010, dated 2014).
